Test results taken from patent publication US11820766B2, “Monoacylglycerol lipase modulators” (Janssen Pharmaceutica NV, priority 2018, dated 2023).
Counter-ions that a name gives are not always drawn.

These compounds were tested against T1, human MGL from HeLa cells (Homo sapiens, UniProt Q99685) (assay: In vitro MGL activity assay: [glycerol-1,3-3H]-oleyl glycerol cleavage by MGL from HeLa cells). Conditions: 300 nM [Glycerol-1,3-3H]-oleyl glycerol, one hour.
T1 construct: combining endogenously expressed MGL from HeLa cells with test compounds; endogenous in cells; host or cells: HeLa cells / cell homogenates
T1 sequence (Q99685 1-303): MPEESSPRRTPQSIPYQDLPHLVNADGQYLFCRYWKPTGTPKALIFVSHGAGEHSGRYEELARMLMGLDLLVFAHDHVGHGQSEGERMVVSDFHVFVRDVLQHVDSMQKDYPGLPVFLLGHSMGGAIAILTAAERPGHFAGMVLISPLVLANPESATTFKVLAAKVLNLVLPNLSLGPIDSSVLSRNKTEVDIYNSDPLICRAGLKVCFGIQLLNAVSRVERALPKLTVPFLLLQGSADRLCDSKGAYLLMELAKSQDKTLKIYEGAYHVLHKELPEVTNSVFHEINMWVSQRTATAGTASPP
Format: biochemical
Source text: MGL is the predominant hydrolase in HeLa cells/cell homogenates.
With COc1cc(Cl)cc(-c2c3c(nn2C)[C@H](C)N(C(=O)c2c(C)nc4ccc(F)cn24)CC3)c1 [Example 406, [(7S)-3-(3-Chloro-5-methoxy-phenyl)-2,7-dimethyl-5,7-dihydro-4H-pyrazolo[3,4-c]pyridin-6-yl]-(6-fluoro-2-methyl-imidazo[1,2-a]pyridin-3-yl)methanone] the IC50 was 22.6 nM. Compound COc1nccc(C(=O)N2CCc3c(nn(C)c3-c3cc(F)cc(C(F)F)c3)[C@@H]2C)c1C [Example 609, [(7S)-3-[3-(Difluoromethyl)-5-fluoro-phenyl]-2,7-dimethyl-5,7-dihydro-4H-pyrazolo[3,4-c]pyridin-6-yl]-(2-methoxy-3-methyl-4-pyridyl)methanone] has an IC50 of 22.7 nM. In the case of Cc1nn2ccnc(C)c2c1C(=O)N1CCc2c(nn(C)c2-c2cc(F)c(F)c(F)c2)[C@@H]1C [Example 446, (2,4-Dimethylpyrazolo[1,5-a]pyrazin-3-yl)-[(7S)-2,7-dimethyl-3-(3,4,5-trifluorophenyl)-5,7-dihydro-4H-pyrazolo[3,4-c]pyridin-6-yl] methanone], the IC50 is reported as 34.1 nM. For COc1ccc(-c2c3c(nn2C)[C@H](C)N(C(=O)c2ccc4ncccc4c2)CC3)cn1 [Example 525, [(7S)-3-(6-Methoxy-3-pyridyl)-2,7-dimethyl-5,7-dihydro-4H-pyrazolo[3,4-c]pyridin-6-yl]-(6-quinolyl)methanone], the IC50 was 602 nM. Work on C[C@H]1c2nn(C)c(-c3cc(F)c(F)c(F)c3)c2CCN1C(=O)c1nnc2ccccn12 [Example 437, [(7S)-2,7-Dimethyl-3-(3,4,5-trifluorophenyl)-5,7-dihydro-4H-pyrazolo[3,4-c]pyridin-6-yl]-([1,2,4]triazolo[4,3-a]pyridin-3-yl)methanone] yielded an IC50 of 187 nM. C[C@H]1c2nn(C)c(-c3cc(F)c(F)c(F)c3)c2CCN1C(=O)c1cnc2n1CCOC2 [Example 562, 6,8-Dihydro-5H-imidazo[2,1-c][1,4]oxazin-3-yl-[(7S)-2,7-dimethyl-3-(3,4,5-trifluorophenyl)-5,7-dihydro-4H-pyrazolo[3,4-c]pyridin-6-yl]methanone] gave an IC50 of 717 nM. C[C@H]1c2nn(C)c(-c3cc(F)cc4ccoc34)c2CCN1C(=O)c1ccc2ncccc2c1 [Example 536, [(7S)-3-(5-Fluorobenzofuran-7-yl)-2,7-dimethyl-5,7-dihydro-4H-pyrazolo[3,4-c]pyridin-6-yl]-(6-quinolyl)methanone] was tested, and the IC50 was 20 nM. C[C@H]1c2nn(C)c(-c3cc(F)c(F)c(F)c3)c2CCN1C(=O)c1nc(C2CC2)n2ccccc12 [Example 421, (3-Cyclopropylimidazo[1,5-a]pyridin-1-yl)-[(7S)-2,7-dimethyl-3-(3,4,5-trifluorophenyl)-5,7-dihydro-4H-pyrazolo[3,4-c]pyridin-6-yl]methanone] was tested, and the IC50 was 6.66 nM. C[C@H]1c2nn(C)c(-c3cc(F)c(F)c(F)c3)c2CCN1C(=O)c1cnc2[nH]ncc2c1 [Example 423, [(7S)-2,7-Dimethyl-3-(3,4,5-trifluorophenyl)-5,7-dihydro-4H-pyrazolo[3,4-c]pyridin-6-yl]-(1H-pyrazolo[3,4-b]pyridin-5-yl)methanone.TFA salt] was tested, and the IC50 was 41 nM. Cc1nc2cccnn2c1C(=O)N1CCc2c(nn(C)c2-c2cc(F)c(F)c(F)c2)[C@@H]1C [Example 455, [(7S)-2,7-Dimethyl-3-(3,4,5-trifluorophenyl)-5,7-dihydro-4H-pyrazolo[3,4-c]pyridin-6-yl]-(2-methylimidazo[1,2-b]pyridazin-3-yl)methanone] was tested, and the IC50 was 23.2 nM. With Cc1nc2ccc(C3CC3)cn2c1C(=O)N1CCc2c(nn(C)c2-c2cc(F)c(F)c(F)c2)[C@@H]1C [Example 618] the IC50 was 18.2 nM. Work on C[C@H]1c2nn(C)c(-c3cc(F)c(F)c(F)c3)c2CCN1C(=O)c1cccc2c1CCCO2 [Example 581, Chroman-5-yl-[(7S)-2,7-dimethyl-3-(3,4,5-trifluorophenyl)-5,7-dihydro-4H-pyrazolo[3,4-c]pyridin-6-yl]methanone] yielded an IC50 of 15.6 nM. C[C@H]1c2nn(C)c(-c3cccc4occc34)c2CCN1C(=O)c1ccc2ncccc2c1 [Example 535, [(7S)-3-(Benzofuran-4-yl)-2,7-dimethyl-5,7-dihydro-4H-pyrazolo[3,4-c]pyridin-6-yl]-(6-quinolyl)methanone] gave an IC50 of 18.1 nM. With C[C@H]1c2nn(C)c(-c3cc(F)c(F)c(F)c3)c2CCN1C(=O)c1c(C(F)(F)F)cnc2[nH]ccc12 [Example 371, [(7S)-2,7-Dimethyl-3-(3,4,5-trifluorophenyl)-5,7-dihydro-4H-pyrazolo[3,4-c]pyridin-6-yl]-[5-(trifluoromethyl)-1H-pyrrolo[2,3-b]pyridin-4-yl] methanone] the IC50 was 136 nM. C[C@H]1c2nn(C)c(-c3cc(F)c(F)c(F)c3)c2CCN1C(=O)c1ncnc2c(F)cccc12 [Example 481, [(7S)-2,7-Dimethyl-3-(3,4,5-trifluorophenyl)-5,7-dihydro-4H-pyrazolo[3,4-c]pyridin-6-yl]-(8-fluoroquinazolin-4-yl)methanone] showed an IC50 of 5.2 nM. C[C@H]1c2nn(C)c(-c3cc(F)c(F)c(F)c3)c2CCN1C(=O)c1cnn2cccnc12 [Example 448, [(7S)-2,7-Dimethyl-3-(3,4,5-trifluorophenyl)-5,7-dihydro-4H-pyrazolo[3,4-c]pyridin-6-yl]-pyrazolo[1,5-a]pyrimidin-3-yl-methanone] was tested, and the IC50 was 113 nM. In the case of C[C@H]1c2nn(C)c(-c3cc(F)c(F)c(F)c3)c2CCN1C(=O)c1ncnc2c1ncn2C [Example 606, [(7S)-2,7-Dimethyl-3-(3,4,5-trifluorophenyl)-5,7-dihydro-4H-pyrazolo[3,4-c]pyridin-6-yl]-(9-methylpurin-6-yl)methanone], the IC50 is reported as 724 nM. C[C@H]1c2nn(C)c(-c3cc(F)c(F)c(F)c3)c2CCN1C(=O)c1nn(C)c2ncccc12 [Example 427, [(7S)-2,7-Dimethyl-3-(3,4,5-trifluorophenyl)-5,7-dihydro-4H-pyrazolo[3,4-c]pyridin-6-yl]-(1-methylpyrazolo[3,4-b]pyridin-3-yl)methanone] gave an IC50 of 28.6 nM. Cc1cnc2cccc(C(=O)N3CCc4c(nn(C)c4-c4cc(F)c(F)c(F)c4)[C@@H]3C)c2n1 [Example 475, [(7S)-2,7-Dimethyl-3-(3,4,5-trifluorophenyl)-5,7-dihydro-4H-pyrazolo[3,4-c]pyridin-6-yl]-(3-methylquinoxalin-5-yl)methanone] was tested, and the IC50 was 73.6 nM. For C[C@H]1c2nn(C)c(-c3cccc4scnc34)c2CCN1C(=O)c1ccc2ncccc2c1 [Example 537, [(7S)-3-(1,3-Benzothiazol-4-yl)-2,7-dimethyl-5,7-dihydro-4H-pyrazolo[3,4-c]pyridin-6-yl]-(6-quinolyl)methanone], the IC50 was 33 nM. For Cc1cn2nc(C(=O)N3CCc4c(nn(C)c4-c4cc(F)c(F)c(F)c4)[C@@H]3C)ccc2n1 [Example 453, [(7S)-2,7-Dimethyl-3-(3,4,5-trifluorophenyl)-5,7-dihydro-4H-pyrazolo[3,4-c]pyridin-6-yl]-(2-methylimidazo[1,2-b]pyridazin-6-yl)methanone], the IC50 was 165 nM.

Same assay, conditions: 300 nM [Glycerol-1,3-3H]-oleyl glycerol, one hour incubation
C[C@H]1c2nn(C)c(-c3cc(F)c(F)c(F)c3)c2CCN1C(=O)c1ncn(-c2ncccc2F)n1 [Example 324, [(7S)-2,7-Dimethyl-3-(3,4,5-trifluorophenyl)-5,7-dihydro-4H-pyrazolo[3,4-c]pyridin-6-yl]-[1-(3-fluoro-2-pyridyl)-1,2,4-triazol-3-yl]methanone] showed an IC50 of 41.7 nM. C[C@H]1c2nn(C)c(-c3cc(F)cc(F)c3)c2CCN1C(=O)c1cc2nccnc2cc1F [Example 171, (S)-(3-(3,5-Difluorophenyl)-2,7-dimethyl-2,4,5,7-tetrahydro-6H-pyrazolo[3,4-c]pyridin-6-yl)(7-fluoroquinoxalin-6-yl)methanone] showed an IC50 of 13 nM. C[C@H]1c2nn(C)c(-c3cc(F)c(F)c(F)c3)c2CCN1C(=O)c1ccc(-n2ccnc2)cc1 [Example 267, [(7S)-2,7-Dimethyl-3-(3,4,5-trifluorophenyl)-5,7-dihydro-4H-pyrazolo[3,4-c]pyridin-6-yl]-(4-imidazol-1-ylphenyl)methanone] gave an IC50 of 576 nM. In the case of Cn1nc2c(c1-c1ccccc1)CCN(C(=O)c1cccc3cc[nH]c13)C2 [Example 45, (1H-Indol-7-yl)(2-methyl-3-phenyl-2,4,5,7-tetrahydro-6H-pyrazolo[3,4-c]pyridin-6-yl)methanone], the IC50 is reported as 1460 nM. Cn1nc2c(c1-c1ccccc1)CCN(C(=O)c1cccc(OC(F)F)n1)C2 [Example 24, (6-(Difluoromethoxy)pyridin-2-yl)(2-methyl-3-phenyl-2,4,5,7-tetrahydro-6H-pyrazolo[3,4-c]pyridin-6-yl)methanone] was tested, and the IC50 was 2560 nM. In the case of Cn1nc2c(c1-c1ccccc1)CCN(C(=O)c1cnc3ccccn13)C2 [Example 81, Imidazo[1,2-a]pyridin-3-yl(2-methyl-3-phenyl-2,4,5,7-tetrahydro-6H-pyrazolo[3,4-c]pyridin-6-yl)methanone], the IC50 is reported as 1320 nM. Work on C[C@H]1c2nn(C)c(-c3cc(F)c(F)c(F)c3)c2CCN1C(=O)c1ccc(-c2ccccn2)s1 [Example 325, [(7S)-2,7-Dimethyl-3-(3,4,5-trifluorophenyl)-5,7-dihydro-4H-pyrazolo[3,4-c]pyridin-6-yl]-[5-(2-pyridyl)-2-thienyl]methanone] yielded an IC50 of 7.9 nM. C[C@H]1c2nn(C)c(-c3cc(F)c(F)c(F)c3)c2CCN1C(=O)c1c(F)cccc1-n1cncn1 [Example 280, [(7S)-2,7-Dimethyl-3-(3,4,5-trifluorophenyl)-5,7-dihydro-4H-pyrazolo[3,4-c]pyridin-6-yl]-[2-fluoro-6-(1,2,4-triazol-1-yl)phenyl]methanone] showed an IC50 of 7.77 nM. Work on Cn1nc2c(c1-c1cc3ccccc3n1C)CCN(C(=O)c1ccc3ncccc3c1)C2 [Example 105, (2-Methyl-3-(1-methyl-1H-indol-2-yl)-2,4,5,7-tetrahydro-6H-pyrazolo[3,4-c]pyridin-6-yl)(quinolin-6-yl)methanone] yielded an IC50 of 406 nM.
